Data: patent US8933031B2, “Polypeptide inhibiting angiogenesis and application thereof” (Shanghai First People's Hospital, priority 2008, dated 2015)

Columns and labels:
[1] = system: chick embryo chorioallantoic membrane; format: in vivo; details: 10 μg or 50 μg AU6 on filter paper, 2 days, vs PBS control group
Procedure: 1.2 Preparation of Model and Intervention Test: The chick fertile eggs of 1-2 days old were randomly grouped into 3 groups, which were respectively a control group, a 10 μg AU6 intervention group, and a 50 μg AU6 intervention group, with 9-15 eggs for each group. The surface of the fertile eggs was cleansing with tap water, and then the eggs were soaked in 0.2% benzalkonium bromide (bromo-geramine) solution for 5-10 minutes. The eggs were placed with the blunt end upward, and hatched in an incubator under 37° C. and 60-70% humidity. The eggs were overturned for at least two times per day, and were hatched for 5 days with 24 hours as one day. Under sterile condition, a small hole of about 1-2cm^2 was created at the blunt end (air chamber end) with a nipper. […] Whatman filter papers with a diameter of 5mm were used as a sample carrier, each of which adsorbed 5 μl of PBS solution containing 0 μg, 10 μg or 50 μg of AU6. After air drying, the papers were placed into the center of the chorioallantoic membrane. […]
1.3 Counting the Number of Micrangiums in the Chorioallantoic Membrane: the adhesive tape was removed, and the micrangiums newly generated on the chorioallantoic membrane were observed. The number of micrangiums (with diameter no greater than 10 μm) within 5 mm around the filter paper for each group was counted under stereomicroscope. […]

[2] = Water solubility of synthesized polypeptide; format: physicochemical; details: white powder
[3] = system: retinal neovascularization induced by anoxia; format: in vivo; details: intravitreal AU6 (5 μg, 10 μg) 12 days after birth, read 17 days after birth, vs model-treated group
Procedure: 1.1 Materials and Main Devices: Healthy, neonatal C57B1/6 mice, 7 days age, weighing about 4 g were purchased from Laboratory Animal Center of Chinese Academy of Sciences. The sex of the mice was not limited. FITC-dextran (molecular weight about 2*10^6) was purchased from SIGMA, USA.
1.2 Preparation of Model and Intervention Test: Neonatal mice of 10 nests were randomly grouped into 5 groups, which respectively were oxygen group, oxygen plus PBS group, oxygen plus 5 μg AU6 group, oxygen plus 10 μg AU6 group, and control group, with 10-11 mice for each group. Seven days after birth, except the control group, all of the other groups of mice were placed in an airproof drying cabinet together with their mother mice of the same nest. Wet pure oxygen was introduced into the drying cabinet, and the oxygen concentration in volume was maintained as 75%±5%. The oxygen concentration was measured every 3-6 hours by using oxygen meter. The control group was incubated normally in air. Twelve days after birth, 0.5 μl PBS solution containing respectively 0, 5 μg, and 10 μg AU6 were injected into the vitreous chambers of the mice in the oxygen plus PBS group and in the oxygen plus AU6 group (5 μg, and 10 μg).
1.3 FITC-dextran Retinal Angiography and Flat-mounts: Seventeen days after birth, 50 mg/ml FITC-dextran solution were perfused into the left ventricle of mice in each group. Then the eyeballs immediately were obtained, fixed in paraformaldehyde solution for 5-24 hours at 4° C. And then the retinas were isolated and flat-mounted. The morphological change of the retinal blood vessel was observed under fluorescence microscope.
1.4 Quantitative Measurement of Retinal Neovascularization: The animals in each group were sacrificed by excessive anaesthesia 17 days after birth. The eyeballs were obtained, and fixed in 10% neutral formaldehyde, and then subjected to histopathological examination. […] The numbers of the nucleus of the vascular endothelial cells which broke through the retinal inner limiting membrane were counted under light microscope. […]

[4] = system: corneal angiogenesis induced by VEGF; format: in vivo
Description: 1.2 Experimental Animal and Material: Healthy, male C57B1/6 mice of 5-6 weeks old weighing about 20 g were purchased from Laboratory Animal Center of Chinese Academy of Sciences. Sucrose octasulfate-aluminum complex was purchased from Sigma-Aldrich, USA. PolyHEMA (poly(2-hydroxyethylmethacylate)) was purchased from Aldrich, USA. And human recombinant VEGF165 was purchased from SIGMA, USA.
1.2 Preparation of Model and Intervention Test: 12% PolyHEMA in an ethanol solution was mixed with an equal volume of normal saline solution containing sucrose octasulfate-aluminum complex powder, thus forming blank slow-release particles with a volume of 0.35 mm*0.35 mm*0.20 mm. 160 ng of VEGF and different amounts (0 μg, 1.0 μg, 2.0 μg) of the small peptides were added into said particles. The resultant products were stored at −20° C., ready for use. The above operations were done under a sterile condition. Thirty C57B1/6 mice (30 eyes) were randomly grouped into a control group (VEGF group), VEGF+1.0 μg AU6 group, and VEGF+2.0 μg AU6 group, with 10 eyes for each group. Under a sterile condition, 23G syringe needle was used to perform blunt separation between the layers of the corneal stroma in the experimental eyes, so as to form a pouch of 0.5 mm*0.5 mm. The particles containing 160 ng VEGF and different amounts of small peptides were implanted into the pouches in the ocular cornea in the mice of each group, and were made to have a distance of 0.6-0.8 mm from limbus. After operation, 0.5% aureomycin oculentum was applied to the eyes to prevent infection and reduce irritation. Photos were obtained 7 days after operation to observe the growth of newly generated blood vessel in the cornea, and a histopathological examination was performed concurrently.
1.3 Quantitative Measurement of Corneal Neovascularization: the length of the new blood vessels grown from limbus was measured 7 days after operation. The area of the new blood vessel was calculated based on the longest blood vessel which had less continuous bending and which grew toward the slow release particles. Formula is as follows: Area (mm^2)=[…]*π*VL (mm)*CN*0.4 (mm), wherein VL is the length of the longest new blood vessel grown from limbus to the cornea (maximal vessel length), and CN represents the clock hours of corneal neovascularization (the cornea is dividing into clock hours).
1.4 Qualitative Observation of Corneal Neovascularization: Each group of animals was sacrificed by excessive anaesthesia 7 days after operation. The eyeballs were obtained under a sterile condition, and fixed in 10% neutral formaldehyde, and then subjected to histopathological examination. The samples were embedded within paraffin and cut into 3 μm sections, HE stained, and observed under light microscope.
1.5 Statistical Analysis: The experimental data were represented as x±s. The length of the longest new blood vessel in cornea, clock hours and area for each group were compared by one-way ANOVA. P<0.05 indicates statistical significance.

[5] = 160 ng VEGF + 1.0 or 2.0 μg AU6 slow-release particles, 7 days after operation, vs control group
[6] = 7 days after operation, AU6 intervention group

YRGKKA ((1)..(6) Peptide AU6 for inhibiting angiogenesis)
numbers of micrangiums within 5 mm around the filter paper [1]: significantly less
water solubility [2]: good
neovascular clusters (FITC-dextran retinal flat-mounts) [3]: reduced
non-perfusion area (FITC-dextran retinal flat-mounts) [3]: narrowed
nucleus of vascular endothelial cells which broke through the inner limiting membrane [3]: obviously less
clock hours of corneal neovascularization [4, 5]: significant decrease
longest blood vessel length of the new blood vessel [4, 5]: significant decrease
area of blood vessel ([4]; 160 ng VEGF + 1.0 or 2.0 μg AU6 slow-release particles, 7 days after operation, vs control group, calculated from VL and CN): significant decrease
blood capillary lumens in corneal stroma (HE stained sections) [4, 6]: very few
oedema in the corneal tissue (HE stained sections) [4, 6]: no obvious oedema
toxicity to each layer of corneal tissues ([4]; mouse, in vivo): not observed
